Test results as given in patent US11279733B2, “Peptide antibiotics” (priority 2017, dated 2022).

Tested on: bacterial strains
Assay: Potentiation/synergy antimicrobial assay (checkerboard, FICI) with antibiotics
Format: cell-based
Conditions: for MIC of antibiotic with 6442 at concn 0: 6442 0 μg/mL; for MIC of antibiotic with 6442 at concn 0.03: 6442 0.03 μg/mL; for MIC of antibiotic with 6442 at concn 0.0625: 6442 0.0625 μg/mL; for MIC of antibiotic with 8980 at conc 0: 8980 0 μg/mL; for MIC of antibiotic with 8980 at conc 1: 8980 1 μg/mL; for MIC of antibiotic with 8980 at conc 2: 8980 2 μg/mL; for MIC of antibiotic with 8980 at conc 4: 8980 4 μg/mL; for MIC of antibiotic with 8980 at conc 8: 8980 8 μg/mL; for MIC of antibiotic with 8981 at conc 0: 8981 0 μg/mL; for MIC of antibiotic with 8981 at conc 1: 8981 1 μg/mL; for MIC of antibiotic with 8981 at conc 2: 8981 2 μg/mL; for MIC of antibiotic with 8981 at conc 4: 8981 4 μg/mL; for MIC of antibiotic with 8981 at conc 8: 8981 8 μg/mL; for MIC of antibiotic with OctC4 at concn 0: OctC4 0 μg/mL; for MIC of antibiotic with OctC4 at concn 0.03: OctC4 0.03 μg/mL; for MIC of antibiotic with OctC4 at concn 0.0625: OctC4 0.0625 μg/mL; for MIC of antibiotic with OctC4 at concn 0.125: OctC4 0.125 μg/mL; for MIC of antibiotic with 6442 at concn 0.25: 6442 0.25 μg/mL; for MIC of antibiotic with 6442 at concn 0.125: 6442 0.125 μg/mL; for MIC of antibiotic with OctC4 at concn 0.25: OctC4 0.25 μg/mL
Experimental: Potentiation/synergy antimicrobial assays were conducted in the same manner as the standard MICs described above, with the following modifications. Assays were performed in 384-well non-binding surface plates (NBS; Corning 3460) and in Cation-adjusted Mueller Hinton Broth (CA-MHB; BD, Cat. No. 212322) with a final assay volume of 50 μL once bacteria was added at 5×10^5 CFU/mL. Antibiotics and octapeptin compounds were plated in duplicate as a 2-fold concentration series, in a matrix checkerboard format. The bacterial cell density of the resultant assay plates after 18-20 h incubation at 37° C. was read by optical density 600 nm (OD600) using a Tecan M1000 Pro Spectrophotometer, and analysed for ≥90% growth inhibition compared to the growth control to determine active concentrations. Synergistic effect was calculated based on the fractional inhibitory concentration index (FICI) by the following equation, where synergy is deemed FICI 0.5: […]

CN(C)c1ccc(O)c2c1C[C@H]1C[C@H]3[C@H](N(C)C)C(O)=C(C(N)=O)C(=O)[C@@]3(O)C(O)=C1C2=O [Minocycline, minocycline]
MIC of antibiotic with 6442 at concn 0 (GN_007 E. coli ESBL): 0.25 µg/mL
MIC of antibiotic with 6442 at concn 0.03 (GN_007 E. coli ESBL): 0.25 µg/mL
MIC of antibiotic with 6442 at concn 0.0625 (GN_007 E. coli ESBL): 0.125 µg/mL
MIC of antibiotic with 8980 at conc 0 (GN_007 E. coli ESBL): 0.25 µg/mL
MIC of antibiotic with 8980 at conc 1 (GN_007 E. coli ESBL): 0.125 to 0.25 µg/mL
MIC of antibiotic with 8980 at conc 2 (GN_007 E. coli ESBL): 0.125 µg/mL
MIC of antibiotic with 8980 at conc 4 (GN_007 E. coli ESBL): 0.06 to 0.125 µg/mL
MIC of antibiotic with 8980 at conc 8 (GN_007 E. coli ESBL): 0.06 to 0.125 µg/mL
MIC of antibiotic with 8981 at conc 0 (GN_007 E. coli ESBL): 0.25 µg/mL
MIC of antibiotic with 8981 at conc 1 (GN_007 E. coli ESBL): 0.25 µg/mL
MIC of antibiotic with 8981 at conc 2 (GN_007 E. coli ESBL): 0.125 to 0.25 µg/mL
MIC of antibiotic with 8981 at conc 4 (GN_007 E. coli ESBL): 0.03 to 0.125 µg/mL
MIC of antibiotic with 8981 at conc 8 (GN_007 E. coli ESBL): 0.03 to 0.125 µg/mL
MIC of antibiotic with OctC4 at concn 0 (GN_007 E. coli ESBL): 0.25 µg/mL
MIC of antibiotic with OctC4 at concn 0.03 (GN_007 E. coli ESBL): 0.25 µg/mL
MIC of antibiotic with OctC4 at concn 0.0625 (GN_007 E. coli ESBL): 0.125 to 0.25 µg/mL
MIC of antibiotic with OctC4 at concn 0.125 (GN_007 E. coli ESBL): 0.125 µg/mL
MIC of antibiotic with 8980 at conc 0 (GN_019 A. baumannii CARB): 4 µg/mL
MIC of antibiotic with 8981 at conc 0 (GN_019 A. baumannii CARB): 4 µg/mL
MIC of antibiotic with 8981 at conc 1 (GN_019 A. baumannii CARB): 2 to 16 µg/mL
MIC of antibiotic with 8981 at conc 2 (GN_019 A. baumannii CARB): 2 to 16 µg/mL
MIC of antibiotic with 6442 at concn 0 (GN_045 K. pneumoniae NDM-1): 32 µg/mL
MIC of antibiotic with 6442 at concn 0.03 (GN_045 K. pneumoniae NDM-1): 32 µg/mL
MIC of antibiotic with 6442 at concn 0.0625 (GN_045 K. pneumoniae NDM-1): 32 µg/mL
MIC of antibiotic with 8980 at conc 0 (GN_045 K. pneumoniae NDM-1): 32 µg/mL
MIC of antibiotic with 8981 at conc 0 (GN_045 K. pneumoniae NDM-1): 32 µg/mL
MIC of antibiotic with OctC4 at concn 0 (GN_045 K. pneumoniae NDM-1): 32 µg/mL
MIC of antibiotic with OctC4 at concn 0.03 (GN_045 K. pneumoniae NDM-1): 32 µg/mL
MIC of antibiotic with OctC4 at concn 0.0625 (GN_045 K. pneumoniae NDM-1): 32 µg/mL
MIC of antibiotic with OctC4 at concn 0.125 (GN_045 K. pneumoniae NDM-1): 32 µg/mL
MIC of antibiotic with 8980 at conc 0 (GN_093 A. baumannii XDR/PmxR): 8 µg/mL
MIC of antibiotic with 8981 at conc 0 (GN_093 A. baumannii XDR/PmxR): 8 µg/mL
MIC of antibiotic with 8981 at conc 1 (GN_093 A. baumannii XDR/PmxR): 4 to 32 µg/mL
MIC of antibiotic with 8981 at conc 2 (GN_093 A. baumannii XDR/PmxR): 2 to 32 µg/mL
MIC of antibiotic with 6442 at concn 0 (GN_102 K. pneumoniae XDR/PmxR): 32 µg/mL
MIC of antibiotic with 6442 at concn 0.03 (GN_102 K. pneumoniae XDR/PmxR): 16 µg/mL
MIC of antibiotic with 6442 at concn 0.0625 (GN_102 K. pneumoniae XDR/PmxR): 16 µg/mL
MIC of antibiotic with 8980 at conc 0 (GN_102 K. pneumoniae XDR/PmxR): 32 µg/mL
MIC of antibiotic with 8981 at conc 0 (GN_102 K. pneumoniae XDR/PmxR): 32 µg/mL
MIC of antibiotic with OctC4 at concn 0 (GN_102 K. pneumoniae XDR/PmxR): 32 µg/mL
MIC of antibiotic with OctC4 at concn 0.03 (GN_102 K. pneumoniae XDR/PmxR): 32 µg/mL
MIC of antibiotic with OctC4 at concn 0.0625 (GN_102 K. pneumoniae XDR/PmxR): 16 µg/mL
MIC of antibiotic with OctC4 at concn 0.125 (GN_102 K. pneumoniae XDR/PmxR): 16 µg/mL
MIC of antibiotic with 6442 at concn 0 (GN_105 P. aeruginosa PmxR): 8 µg/mL
MIC of antibiotic with 6442 at concn 0.03 (GN_105 P. aeruginosa PmxR): 4 µg/mL
MIC of antibiotic with 6442 at concn 0.0625 (GN_105 P. aeruginosa PmxR): 2 to 4 µg/mL
MIC of antibiotic with 6442 at concn 0.25 (GN_105 P. aeruginosa PmxR): 0.06 µg/mL
MIC of antibiotic with 8980 at conc 0 (GN_105 P. aeruginosa PmxR): 8 µg/mL
MIC of antibiotic with 8980 at conc 2 (GN_105 P. aeruginosa PmxR): 1 µg/mL
MIC of antibiotic with 8980 at conc 4 (GN_105 P. aeruginosa PmxR): 1 µg/mL
MIC of antibiotic with 8981 at conc 0 (GN_105 P. aeruginosa PmxR): 8 µg/mL
MIC of antibiotic with OctC4 at concn 0 (GN_105 P. aeruginosa PmxR): 8 µg/mL
MIC of antibiotic with OctC4 at concn 0.03 (GN_105 P. aeruginosa PmxR): 8 µg/mL
MIC of antibiotic with OctC4 at concn 0.0625 (GN_105 P. aeruginosa PmxR): 4 µg/mL
MIC of antibiotic with OctC4 at concn 0.125 (GN_105 P. aeruginosa PmxR): 4 µg/mL
MIC of antibiotic with 6442 at concn 0 (GN_181 E. coli mcr-1): 4 µg/mL
MIC of antibiotic with 6442 at concn 0.03 (GN_181 E. coli mcr-1): 4 µg/mL
MIC of antibiotic with 6442 at concn 0.125 (GN_181 E. coli mcr-1): 1 µg/mL
MIC of antibiotic with 6442 at concn 0.25 (GN_181 E. coli mcr-1): 0.06 µg/mL
MIC of antibiotic with 8980 at conc 0 (GN_181 E. coli mcr-1): 4 µg/mL
MIC of antibiotic with 8980 at conc 1 (GN_181 E. coli mcr-1): 1 to 2 µg/mL
MIC of antibiotic with 8980 at conc 2 (GN_181 E. coli mcr-1): 0.5 to 2 µg/mL
MIC of antibiotic with 8980 at conc 4 (GN_181 E. coli mcr-1): 0.5 to 2 µg/mL
MIC of antibiotic with 8980 at conc 8 (GN_181 E. coli mcr-1): 0.5 to 2 µg/mL
MIC of antibiotic with 8981 at conc 0 (GN_181 E. coli mcr-1): 4 µg/mL
MIC of antibiotic with 8981 at conc 1 (GN_181 E. coli mcr-1): 1 to 2 µg/mL
MIC of antibiotic with 8981 at conc 2 (GN_181 E. coli mcr-1): 1 to 2 µg/mL
MIC of antibiotic with 8981 at conc 4 (GN_181 E. coli mcr-1): 0.5 to 2 µg/mL
MIC of antibiotic with 8981 at conc 8 (GN_181 E. coli mcr-1): 0.5 to 2 µg/mL
MIC of antibiotic with OctC4 at concn 0 (GN_181 E. coli mcr-1): 4 µg/mL
MIC of antibiotic with OctC4 at concn 0.03 (GN_181 E. coli mcr-1): 4 µg/mL
MIC of antibiotic with OctC4 at concn 0.0625 (GN_181 E. coli mcr-1): 2 to 4 µg/mL
MIC of antibiotic with OctC4 at concn 0.25 (GN_181 E. coli mcr-1): 0.06 to 0.25 µg/mL

CO[C@H]1/C=C/O[C@@]2(C)Oc3c(C)c(O)c4c(O)c(c(/C=N/N5CCN(C)CC5)c(O)c4c3C2=O)NC(=O)/C(C)=C\C=C\[C@H](C)[C@H](O)[C@@H](C)[C@@H](O)[C@@H](C)[C@H](OC(C)=O)[C@@H]1C [Rifampicin, rifampicin]
MIC of antibiotic with 6442 at concn 0 (GN_102 K. pneumoniae XDR/PmxR): 32 µg/mL
MIC of antibiotic with 6442 at concn 0.125 (GN_102 K. pneumoniae XDR/PmxR): 16 µg/mL
MIC of antibiotic with 8980 at conc 0 (GN_102 K. pneumoniae XDR/PmxR): 32 µg/mL
MIC of antibiotic with 8980 at conc 1 (GN_102 K. pneumoniae XDR/PmxR): 16 µg/mL
MIC of antibiotic with 8981 at conc 0 (GN_102 K. pneumoniae XDR/PmxR): 32 µg/mL
MIC of antibiotic with 8981 at conc 1 (GN_102 K. pneumoniae XDR/PmxR): 16 to 32 µg/mL
MIC of antibiotic with 8981 at conc 2 (GN_102 K. pneumoniae XDR/PmxR): 16 µg/mL
MIC of antibiotic with 8981 at conc 4 (GN_102 K. pneumoniae XDR/PmxR): 8 to 16 µg/mL
MIC of antibiotic with OctC4 at concn 0 (GN_102 K. pneumoniae XDR/PmxR): 32 µg/mL
MIC of antibiotic with OctC4 at concn 0.0625 (GN_102 K. pneumoniae XDR/PmxR): 32 µg/mL
MIC of antibiotic with OctC4 at concn 0.125 (GN_102 K. pneumoniae XDR/PmxR): 32 µg/mL
MIC of antibiotic with 6442 at concn 0 (GN_181 E. coli mcr-1): 32 µg/mL
MIC of antibiotic with 6442 at concn 0.25 (GN_181 E. coli mcr-1): 0.25 µg/mL
MIC of antibiotic with 8980 at conc 0 (GN_181 E. coli mcr-1): 32 µg/mL
MIC of antibiotic with 8980 at conc 1 (GN_181 E. coli mcr-1): 32 µg/mL
MIC of antibiotic with 8980 at conc 2 (GN_181 E. coli mcr-1): 32 µg/mL
MIC of antibiotic with 8980 at conc 4 (GN_181 E. coli mcr-1): 32 µg/mL
MIC of antibiotic with 8981 at conc 0 (GN_181 E. coli mcr-1): 32 µg/mL
MIC of antibiotic with 8981 at conc 1 (GN_181 E. coli mcr-1): 32 µg/mL
MIC of antibiotic with 8981 at conc 2 (GN_181 E. coli mcr-1): 32 µg/mL
MIC of antibiotic with 8981 at conc 4 (GN_181 E. coli mcr-1): 32 µg/mL
MIC of antibiotic with OctC4 at concn 0 (GN_181 E. coli mcr-1): 32 µg/mL

CC(=O)NC[C@H]1CN(c2ccc(N3CCOCC3)c(F)c2)C(=O)O1 [Linezolid, linezolid]
MIC of antibiotic with OctC4 at concn 0 (GN_181 E. coli mcr-1): >32 µg/mL
MIC of antibiotic with OctC4 at concn 0.03 (GN_181 E. coli mcr-1): 8 µg/mL
MIC of antibiotic with OctC4 at concn 0.0625 (GN_181 E. coli mcr-1): 4 µg/mL
MIC of antibiotic with OctC4 at concn 0.125 (GN_181 E. coli mcr-1): 4 µg/mL
MIC of antibiotic with OctC4 at concn 0.25 (GN_181 E. coli mcr-1): 0.25 µg/mL

arenicin-3
MIC of antibiotic with OctC4 at concn 0 (GN_043 P. aeruginosa PmxR): 2 µg/mL
MIC of antibiotic with OctC4 at concn 0 (GN_093 A. baumannii XDR/PmxR): 0.5 µg/mL
MIC of antibiotic with OctC4 at concn 0.125 (GN_093 A. baumannii XDR/PmxR): 0.008 µg/mL
MIC of antibiotic with OctC4 at concn 0.25 (GN_093 A. baumannii XDR/PmxR): 0.016 µg/mL
